Patent US11110104B2, “Glutamine antagonists for the treatment of cognitive deficits and psychiatric disorders” (THE JOHNS HOPKINS UNIVERSITY, priority 2015, dated 2021)
“Also recorded” adds a separate entry of the source. Where two headings read alike, the source gives them in different places.

Assays:
[1] = Stability in monkey plasma; type: in vitro ADME
[2] = Stability in human plasma; type: in vitro ADME
[3] = Pharmacokinetics of DON in swine plasma and CSF; conditions: 60 min post-administration
[4] = test system: LPS-treated mice; assay: LPS-induced deficit in contextual fear memory reconsolidation; type: in vivo, mouse; conditions: 1.9 mg/kg, i.p. co-administered with LPS 0.3 mg/kg, i.p. on Day 2
Method: Fear conditioning and testing were performed in sound-attenuating chambers equipped with a metal grid floor to deliver calibrated inescapable footshocks. Fear conditioning (Day 1) consisted of a 2 minute habituation period followed by three 20 second 80 dB 2 kHz tones co-terminating in 0.4 mA footshocks separated by 1 minute interstimulus intervals. One day later (Day 2), each mouse was randomized into one of four treatment groups (PBS/Vehicle, PBS/9, LPS/Vehicle, LPS/9) and co-administered either LPS (0.3 mg/kg, i.p.) or filtered PBS with either 9 (1.9 mg/kg, i.p.) or Vehicle. Four hours later, each mouse was exposed to a reactivation session in which they were placed back in the fear conditioning context for 15 minutes. One day later (Day 3), each mouse underwent a test for fear memory reconsolidation by being placed again in the fear conditioning context for 10 minutes. For each session, time spent freezing was determined using automated motion detection software (CleverSys) and converted to percentages.
Freezing percentages during the reconsolidation test were grouped by treatment into 2 minute bins. Between group differences were determined by repeated measure two-way ANOVA and post hoc Dunnett's test with significance defined as p<0.05.

[5] = test system: glutamate in CSF; assay: CSF glutamate levels in EcoHIV mice (LC/MS); type: in vivo, mouse
Method: CSF samples were derivatized with dabsyl chloride for analysis. To prepare a dabsyl chloride stock, acetone was added to dabsyl chloride to 10 mM concentration, vortexed, water bath sonicated for 10 minutes followed by heating to 60° C. for 10 minutes, vortexing again, centrifugation for 5 minutes at 16,000×g and taking the supernatant. Ten microliter standards of glutamate were prepared in artificial CFS by serial dilution. To each standard and sample, one volume of 0.2 M sodium bicarbonate buffer (pH 9.0 containing 100 μM glutamate-d5 as internal standard) and 2 volumes dabsyl chloride stock was added. Samples were incubated at 60° C. 10 minutes to derivatize. […] Glutamate was quantifiable to 10 nM.
Male C57BL6 mice were sham or EcoHIV-inoculated (4e6 pg p24, i.p.) then randomized to receive vehicle or compound 25 (1.82 mg/kg, i.p. every other day) beginning 15 post-inoculation. On day 33 post-inoculation, all mice were deeply anesthetized with isoflurane 30 minutes post-last dose, and CSF was terminally sampled from the cistema magna prior to measurement of glutamate concentrations by LC/MS-MS. EcoHIV infection caused increases in CSFS glutamate that were normalized by compound 25 treatment. Excluding values >2SD from mean, n=4-5/group. Analysis by two-way ANOVA followed by post-hoc Fisher's LSD, *p<0.05, ***p<0.001. Data are presented as the mean+SEM.

[6] = test system: CSDS mice; assay: Three-chambered social approach test after chronic social defeat stress (CSDS); type: in vivo, mouse
Method: (§1) Compound 25 was synthesized by our laboratory. For all pharmacokinetic and efficacy studies, compound 25 was administered per oral (p.o.) at a dose of 1.82 mg/kg (1 mg/kg DON equivalent) in 50 mM HEPES-buffered saline.
Male 7- to 8-week-old C57BL/6J (C57) mice (25-30 g; Jackson Laboratory, Bar Harbor, Me.) and 4- to 6-month-old CD-1 retired breeders (35-45 g; Charles River Laboratories, Wilmington, Mass.) were used for all experiments. Mice were housed on a reversed 12-h light/dark cycle, and maintained in a humidity- and temperature-controlled room with water and food available ad libitum. CD-1 mice were singly housed except during social defeats. C57 mice were group housed before starting CSDS and singly housed after CSDS. Behavioral experiments were conducted during the dark cycle. All studies were conducted with approved protocols from the Johns Hopkins University Institutional Animal Care and Use Committee and were in accordance with the NIH guidelines for the Care and Use of Laboratory Animals.
Mice were exposed to CSDS and subsequently administered compound 25 or vehicle every other day for 12 days (FIG. 14A). To examine the effect of compound 25 treatment on behavioral phenotypes induced by CSDS, we first tested the mice in the three-chambered social approach test, where the social approach of a mouse toward a stranger mouse trapped in a wire cage was measured.

[7] = test system: CSDS mice; assay: Sucrose preference test after CSDS; type: in vivo, mouse
Method: as §1
The sucrose preference test was performed according to a previously described protocol (Cao et al, 2013; Roybal et al, 2007). The mice were singly caged before the test. On day 1, their normal water bottles were replaced with two 50 ml tubes (bottle ‘A’ and bottle ‘B’) fitted with bottle stoppers containing two-balled sipper tubes. The position of bottles A and B were switched daily to avoid a side bias, and the fluid consumed from each bottle was measured daily. During days 1 and 2, bottles A and B were filled with normal drinking water (W/W). During days 3 and 4, both bottles were filled with a solution of 1.5% sucrose dissolved in drinking water (S/S). On days 5-8, bottle A contained 1.5% sucrose, and bottle B contained drinking water […]. Sucrose preference on each day for each mouse was calculated as 100%×(Vol A/(Vol A+Vol B)) and averaged across the days for a given condition (W/W, S/S, or S/W). The average of total fluid consumption was also calculated as (Vol A+Vol B).
To examine the effect of compound 25 treatment on anhedonia-like behavior, control and CSDS mice were subjected to an 8-day sucrose preference test.

[8] = test system: NRGN; assay: Gene expression by QPCR in basal ganglia brain tissues of EcoHIV-infected mice; type: in vivo, mouse; conditions: DON treatment reversal experiment; tissues collected 15 min after last DON treatment
[9] = DON levels in plasma, CSF and basal ganglia of mice (LC-MS/MS); type: in vivo; conditions: C57Bl, mouse, 15 minutes after dosing, DON 1 mg/kg
Method: DON was spiked into untreated mouse plasma to generate standards at concentrations from 10 nM to 100 μM at half-log intervals. Butanol with 3N HCl (250 μL) was added to standards and samples (50 μL) and centrifuged at 16,000×g for 5 minutes to precipitate proteins. […] After derivatization the samples were dried at 45° C. under a nitrogen stream. Samples were resuspended in 50 μL 70/30 water/acetonitrile, vortexed and centrifuged at 16,000×g. […] Standards within the quantifiable range were used to generate a standard curve. Samples below the limit of quantification (BLQ) were assigned a value of 0.
Brain analysis: Brain sections were weighed. DON was spiked into untreated mouse brain tissue to generate standards as described above. Butanol with 3N HCl (5 μL/mg) was added to standards and samples and homogenized by pestle followed by centrifugation at 16,000×g. An aliquot (200 μL) of the supernatant was transferred to a new tube and processed as described in the plasma analysis section. Twenty microliters was injected for analysis as described hereinabove.

[10] = test system: STX1A; assay: Gene expression by QPCR in basal ganglia brain tissues of EcoHIV-infected mice; type: in vivo, mouse; conditions: DON treatment reversal experiment; tissues collected 15 min after last DON treatment
Method: Relative extent of gene expression tested by QPCR in basal ganglia brain tissues obtained from mice tested in DON treatment reversal experiment shown in FIG. 2A, FIG. 2B, and FIG. 2C. The tissues were collected 15 min after the last DON treatment;

[11] = test system: EcoHIV-infected mice; assay: Radial arm water maze, therapeutic DON treatment of EcoHIV-infected mice; type: in vivo, mouse; conditions: DON 1 mg/kg every other day started 26 days after EcoHIV infection; tests from day 30
Method: The experimental design was for DON prophylaxis except that mice were infected first and DON administration at 1 mg/kg every other day started on Day 26 after infection.

[12] = test system: EcoHIV-infected mice; assay: Radial arm water maze, DON prophylaxis in EcoHIV-infected mice
[13] = test system: EAE mice; conditions: cited from earlier work
[14] = DON 1 mg/kg, i.p., […], 30 days post-infection

In the case of CC(C)OC(=O)[C@H](CCC(=O)C=[N+]=[N-])NC(=O)O[C@H](C)OC(=O)C(C)(C)C (single isomer, unassigned) [Compound 14b], the “stability in monkey plasma” value [1] is reported as “unexpected stability”, the “stability in human plasma” value [2] is reported as “unexpected stability” and the “CSF-to-plasma ratio of DON relative to DON” value [3] is reported as “increased CSF-to-plasma ratios”. The “amount of DON delivered to the CSF relative to DON” value [3] was “substantially higher amounts of DON to the CSF”.

In the case of CC(C)C[C@H](N)C(=O)N[C@@H](CCC(=O)C=[N+]=[N-])C(=O)OC(C)C [Compound 9], the “LPS-induced reduced freezing during the reconsolidation test (Day 3)” value [4] is reported as “attenuated; also recorded: indistinguishable from PBS/Veh mice”.

With CCOC(=O)[C@H](CCC(=O)C=[N+]=[N-])NC(=O)[C@@H](N)CC(C)C [Compound 25] the “EcoHIV-induced increases in CSF glutamate concentration” value ([5]; 1.82 mg/kg, i.p. every other day, CSF sampled day 33 post-inoculation, 30 minutes post-last dose) was “significantly reversed EcoHIV-induced increases in CSF glutamate concentration”, the “social behaviors (time in chamber, time sniffing) in mice subjected to CSDS” value ([6]; 1.82 mg/kg p.o. (1 mg/kg DON equivalent) every other day for 12 days after CSDS) was “normalized observed social behaviors” and the “sociability in control mice” value ([6]; 1.82 mg/kg p.o. every other day for 12 days, control mice) was “no effect on sociability in control mice”. The “sucrose consumption (sucrose preference) in the CSDS group, days 5-8” value ([7]; 1.82 mg/kg p.o. (1 mg/kg DON equivalent), CSDS mice) was “markedly restored sucrose consumption” and the “sucrose consumption (sucrose preference) in controls, days 5-8” value ([7]; 1.82 mg/kg p.o., control mice) was “no change was observed in controls”.

With CC(C)OC(=O)[C@H](CCC(=O)C=[N+]=[N-])NC(=O)OC(OC(=O)C(C)(C)C)c1ccccc1 (stereo partly drawn) [Compound 47] the “CSF-to-plasma ratio of DON relative to DON” value [3] was “increased CSF-to-plasma ratios” and the “amount of DON delivered to the CSF relative to DON” value [3] was “substantially higher amounts of DON to the CSF”.

With [N-]=[N+]=CC(=O)CC[C@H](N)C(=O)O [DON, 6-diazo-5-oxo-L-norleucine] the “NRGN gene expression in basal ganglia” value [8] was “reversed HIV-mediated down-modulation”, the “glutamate in CSF of EcoHIV mice” value ([5]; DON-treated mice, no significant differences by one-way ANOVA) was “tended to decrease the glutamate in the EcoHIV mice” and the concentration at 15 min ([9]; CSF, read-out: DON concentration in CSF) was 300 to 500 nM. The concentration at 15 min ([9]; brain (basal ganglia), read-out: DON concentration in brain tissue (basal ganglia)) was 300 to 500 nM, the concentration at 15 min ([9]; plasma, read-out: DON concentration in plasma) was 2500 to 3000 nM and the “STX1A gene expression in basal ganglia” value [10] was “reversed HIV-mediated down-modulation”. The “cognitive disease (radial arm water maze)” value [11] was “completely abrogates (reverses) cognitive disease”, the “HIV-induced cognitive impairment (radial arm water test, learning and memory)” value ([12]; DON 1 mg/kg on alternate days from 24 h before EcoHIV infection, tested 30 days after infection) was “prevents development of HIV-induced cognitive impairment” and the “cognitive performance as measured by errors (RAWM, hidden platform)” value [12, 14] was “fully normalized cognitive performance”. The “cognitive performance as measured by latency to escape (RAWM, hidden platform)” value [12, 14] was “fully normalized cognitive performance”, the “EAE (disease score), DON from time of immunization” value ([13]; DON i.p. q.a.d. 1.6 mg/kg from the time of immunization (Shijie, et al., 2009)) was “attenuates EAE” and the “EAE (disease score), lower doses of DON” value ([13]; DON i.p. q.a.d., doses lower than 1.6 mg/kg (Shijie, et al., 2009)) was “ineffective”.
